Experimental data as given in ChEMBL document CHEMBL1124348, “Synthesis and biological evaluation of substituted benzo[h]cinnolinones and 3H-benzo[6,7]cyclohepta[1,2-c]pyridazinones: higher homologues of the antihypertensive and antithrombotic 5H-indeno[1,2-c]pyridazinones” (J Med Chem, 1989).
The source made the active and inactive calls. The calls are words filed in the database; no cut-off is given here.

Experiments:
[1] = (§1) Lethal dose in mouse by administering compound intraperitoneally; assay type: toxicity, organism-based; settings: in vivo, ip
Mus musculus [2] = assay: Antithrombotic activity in mouse when administered a dose of 20 mg/kg perorally; NA means inactive; assay type: functional, organism-based; design: dose 20 mg/kg
[3] = Lethal dose in mouse was determined by administering perorally; assay type: toxicity, organism-based; settings: in vivo, po
Cavia porcellus [4] = organism: Cavia porcellus; assay: Inotropic activity against guinea pig spontaneously beating atria; assay type: functional
Mus musculus [5] = assay: as §1; assay type: toxicity, organism-based; settings: in vivo, ip
Rattus norvegicus [6] = assay: Antihypertensive activity in hypertensive rats, after peroral administration that lowered the blood pressure by 50 mmHg; Valure ranges from 1.67 to 5.40; assay type: functional; settings: po
Mus musculus [7] = assay: Antithrombotic activity in mouse when administered a dose of 20 mg/kg perorally; assay type: functional; settings: route oral
Cavia porcellus [8] = organism: Cavia porcellus; assay: In vitro inhibitory activity of thrombin (0.625 IU/mL)-induced platelet aggregation in guinea pig platelet rich plasma after 2 min; assay type: functional
Cavia porcellus [9] = organism: Cavia porcellus; assay: In vitro irreversible inhibitory activity of adenosine diphosphate (0.5 uM)-induced platelet aggregation in guinea pig platelet rich plasma; assay type: functional
Cavia porcellus [10] = organism: Cavia porcellus; assay: In vitro reversible inhibitory activity of adenosine diphosphate (0.5 uM)-induced platelet aggregation in guinea pig platelet rich plasma; assay type: functional
Cavia porcellus [11] = organism: Cavia porcellus; assay: In vitro inhibitory activity of collagen (0.8 ug/mL)-induced platelet aggregation in guinea pig platelet rich plasma at a dose of 0.8 ug/mL; assay type: functional
Rattus norvegicus [12] = assay: Variation in heart rate when 25 mg/kg administered orally in rats; assay type: functional; settings: route oral
Rattus norvegicus [13] = organism: Rattus norvegicus; assay: Antihypertensive action versus dihydralazine; assay type: functional
Cavia porcellus [14] = organism: Cavia porcellus; assay: In vitro inhibitory activity of thrombin (0.625 IU/mL)-induced platelet aggregation in guinea pig platelet rich plasma after 4 min; assay type: functional
Rattus norvegicus [15] = assay: divya_inp96 Antihypertensive activity in hypertensive rats, after peroral administration that lowered the blood pressure by 50 mmHg; assay type: functional; settings: po
Rattus norvegicus [16] = assay: Antihypertensive activity in hypertensive rats, after peroral administration that lowered the blood pressure by 50 mmHg; value ranges from 0.52 to 4.88; assay type: functional; settings: po
Cavia porcellus [17] = organism: Cavia porcellus; assay: Inhibitory activity of thrombin (0.625 IU/mL)-induced platelet aggregation in guinea pig platelet rich plasma after 2 min; assay type: functional
[18] = divya_inp96 Lethal dose in mouse by administering compound intraperitoneally; assay type: toxicity, organism-based; settings: in vivo, ip
Rattus norvegicus [19] = assay: Antihypertensive activity in hypertensive rats, after peroral administration that lowered the blood pressure by 50 mmHg; assay type: functional; settings: po
Cavia porcellus [20] = organism: Cavia porcellus; assay: In vitro reversible inhibitory activity of adenosine diphosphate (0.5 uM)-induced platelet aggregation in guinea pig platelet rich plasma; NA means inactive; assay type: functional
Cavia porcellus [21] = organism: Cavia porcellus; assay: In vitro irreversible inhibitory activity of adenosine diphosphate (0.5 uM)-induced platelet aggregation in guinea pig platelet rich plasma; NA means inactive; assay type: functional
Rattus norvegicus [22] = assay: Antihypertensive activity in hypertensive rats, after peroral administration that lowered the blood pressure by 50 mmHg; value ranges from 2.50 to 6.50; assay type: functional; settings: po
Rattus norvegicus [23] = assay: Antihypertensive activity in hypertensive rats, after peroral administration that lowered the blood pressure by 50 mmHg; value ranges from 3.50 to 4.80; assay type: functional; settings: po
Rattus norvegicus [24] = assay: Antihypertensive activity in hypertensive rats, after peroral administration that lowered the blood pressure by 50 mmHg; value ranges from 6.52 to 14.62; assay type: functional; settings: po

Compound	LD50 [1]	LD50 [3]	pD2 (Cavia porcellus [4])	Inhibition (Cavia porcellus [8])	Inhibition (Cavia porcellus [9])	Inhibition (Cavia porcellus [10])	Inhibition (Cavia porcellus [11])	Relative activity (Rattus norvegicus [13])	Inhibition (Cavia porcellus [14])	Peak effect (Rattus norvegicus [12])	Protection (Mus musculus [7])	also measured
N#Cc1ccc2c(c1)CCC1CC(=O)NN=C21 (stereo not given)	560 mg/kg	> 1000 mg/kg										Protection (Mus musculus [2]): inactive
CC(=O)Nc1ccc2c(c1)CCC1CC(=O)NN=C21 (racemic)		> 1000 mg/kg	5.54	65%	92%	47%	47%	1.32	66%			LD50 (Mus musculus [5]): 460 mg/kg; ED50 (Rattus norvegicus [6]): 3.1 mg/kg; Protection (Mus musculus [7]; 20 mg/kg): 100%; Peak effect (Rattus norvegicus [12]; 25 mg/kg): 90
N/N=c1\[nH][nH]/c(=N\N)c2ccccc12 [DIHYDRALAZINE]								1		68		ED50 (Rattus norvegicus [15]): 64.1 mg/kg
CC(=O)Nc1ccc2c(c1)CCC1CC(=O)NN=C21 (single isomer, unassigned; (+))			5.65	91%	77%	36%	2%	1.95	100%			LD50 (Mus musculus [5]): > 1000 mg/kg; Protection (Mus musculus [7]; 20 mg/kg): 89%; ED50 (Rattus norvegicus [16]): 2.1 mg/kg; Peak effect (Rattus norvegicus [12]; 25 mg/kg): 55
CC(=O)Oc1ccccc1C(=O)O [ASPIRIN]		> 1000 mg/kg			100%	0%	75%		0%		44%	Inhibition (Cavia porcellus [17]): 0%; LD50 [18]: 6500 mg/kg
CC(=O)Nc1ccc2c(c1)CCC1CC(=O)NN=C21 (stereo in doubt; (-)-3c)				62%	76%	37%	10%		63%			Protection (Mus musculus [7]; 20 mg/kg): 84%
Nc1ccc2c(c1)CCCC1CC(=O)NN=C21 (stereo not given)	483 mg/kg	700 mg/kg									45%	
Oc1cc2c(nn1)-c1ccccc1CC2	707 mg/kg	> 1000 mg/kg	4.74							-35	33%	ED50 (Rattus norvegicus [19]): > 25 mg/kg
CC(=O)Nc1cccc2c1CCC1CC(=O)NN=C21 (stereo not given)	378 mg/kg	> 1000 mg/kg										inhibition (Cavia porcellus [20]): inactive; Protection (Mus musculus [2]): inactive; inhibition (Cavia porcellus [21]): inactive
Cn1c(=O)c2[nH]cnc2n(C)c1=O.Cn1c(=O)c2[nH]cnc2n(C)c1=O.NCCN [AMINOPHYLLINE]			5.91									
CC(=O)Nc1ccc2c(c1)C1=NNC(=O)CC1CC2 (stereo not given)	> 1000 mg/kg	> 1000 mg/kg		17%	6%	0%	62%		14%		25%	
CC(=O)Nc1ccc2c(c1)CCc1cc(O)nnc1-2	651 mg/kg	> 1000 mg/kg	5.77	81%	95%	40%	6%	1.14	86%	50	55%	ED50 (Rattus norvegicus [19]): 3.6 mg/kg
Nc1ccc2c(c1)CCC1CC(=O)NN=C21 (stereo not given)	611 mg/kg	> 1000 mg/kg	4.93	13%	42%	10%	21%	1.17	27%	90	73%	ED50 (Rattus norvegicus [22]): 3.5 mg/kg
CC(Cl)C(=O)Nc1ccc2c(c1)CCC1CC(=O)NN=C21 (stereo not given)	> 1000 mg/kg	> 1000 mg/kg									33%	
CC(=O)Nc1ccc2c(c1)CCCC1CC(=O)NN=C21 (stereo not given)	> 1000 mg/kg	> 1000 mg/kg									46%	
O=C1CC2CCc3ccccc3C2=NN1 (stereo not given)	450 mg/kg	666 mg/kg	4.98	84%	95%	30%	100%		97%	70	59%	ED50 (Rattus norvegicus [19]): 23.5 mg/kg
CC(=O)Nc1ccc2c(c1)CC1CC(=O)NN=C21 (stereo not given)			5.95					0.58		53		ED50 (Rattus norvegicus [23]): 7.1 mg/kg
Nc1ccc2c(c1)CC1CC(=O)NN=C21 (stereo not given)			5.05					0.37		49		ED50 (Rattus norvegicus [24]): 11 mg/kg
